Data from PubChem BioAssay AID248 (DTP/NCI, 2004).
Where “and” joins values, the source holds several entries; their conditions need not be identical. Identical values can stand only once. Toxic doses and inconclusive results are not listed.

Tested on: L1210 leukemia ip in BDF1 mice, survival T/C
Assay: NCI In Vivo Anticancer Drug Screen. Data for tumor model L1210 Leukemia (intraperitoneal) in B6D2F1 (BDF1) mice
Conditions: endpoint: mean survival time, higher = longer survival
Summary of the method: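 In this screen, tumor-bearing mice given compound are compared to those given vehicle, and their survival values are reported as a treated-to-control quotient.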

[1] = dose: 100.0 mg/kg/injection, schedule: Q01DX001 (ip), vehicle: carboxymethylcellulose (CMC)
[2] = dose: 200.0 mg/kg/injection, schedule: Q01DX001 (ip), vehicle: carboxymethylcellulose (CMC)
[3] = dose: 400.0 mg/kg/injection, schedule: Q01DX001 (ip), vehicle: carboxymethylcellulose (CMC)
[4] = dose: 100.0 mg/kg/injection, schedule: Q01DX001 (ip), vehicle: saline
[5] = dose: 200.0 mg/kg/injection, schedule: Q01DX001 (ip), vehicle: saline
[6] = dose: 400.0 mg/kg/injection, schedule: Q01DX001 (ip), vehicle: saline
[7] = dose: 100.0 mg/kg/injection, schedule: Q01DX009 (ip), vehicle: Klucel (hydroxypropylcellulose) (HPC)
[8] = dose: 200.0 mg/kg/injection, schedule: Q01DX009 (ip), vehicle: Klucel (hydroxypropylcellulose) (HPC)
[9] = dose: 400.0 mg/kg/injection, schedule: Q01DX009 (ip), vehicle: Klucel (hydroxypropylcellulose) (HPC)
[10] = dose: 100.0 mg/kg/injection, schedule: Q04DX003 (ip), vehicle: Klucel (hydroxypropylcellulose) (HPC)
[11] = dose: 200.0 mg/kg/injection, schedule: Q04DX003 (ip), vehicle: Klucel (hydroxypropylcellulose) (HPC)
[12] = dose: 400.0 mg/kg/injection, schedule: Q04DX003 (ip), vehicle: Klucel (hydroxypropylcellulose) (HPC)
[13] = dose: 50.0 mg/kg/injection, schedule: Q01DX001 (ip), vehicle: saline
[14] = dose: 100.0 mg/kg/injection, schedule: Q04DX003 (ip), vehicle: saline
[15] = dose: 200.0 mg/kg/injection, schedule: Q04DX003 (ip), vehicle: saline

COc1cc(C=Nc2cccc(Br)c2)ccc1N(CCCl)CCCl
T/C (dose: 1.4 mg/kg/injection, schedule: Q01DX015 (ip), vehicle: carboxymethylcellulose (CMC)): 107 % of control
T/C (dose: 2.2 mg/kg/injection, schedule: Q01DX015 (ip), vehicle: carboxymethylcellulose (CMC)): 111 % of control
T/C (dose: 3.3 mg/kg/injection, schedule: Q01DX009 (ip), vehicle: saline): 101 % of control
T/C (dose: 3.3 mg/kg/injection, schedule: Q01DX015 (ip), vehicle: carboxymethylcellulose (CMC)): 113 % of control
T/C (dose: 5.0 mg/kg/injection, schedule: Q01DX009 (ip), vehicle: saline): 116 % of control
T/C (dose: 5.0 mg/kg/injection, schedule: Q01DX015 (ip), vehicle: carboxymethylcellulose (CMC)): 119 % of control and 121 % of control
T/C (dose: 9.0 mg/kg/injection, schedule: Q01DX009 (ip), vehicle: saline): 109 % of control
T/C (dose: 9.0 mg/kg/injection, schedule: Q01DX015 (ip), vehicle: carboxymethylcellulose (CMC)): 159 % of control
T/C (dose: 15.0 mg/kg/injection, schedule: Q01DX009 (ip), vehicle: saline): 111 % of control
T/C (dose: 15.0 mg/kg/injection, schedule: Q01DX015 (ip), vehicle: carboxymethylcellulose (CMC)): 105 % of control
T/C (dose: 22.0 mg/kg/injection, schedule: Q01DX001 (ip), vehicle: carboxymethylcellulose (CMC)): 111 % of control
T/C (dose: 25.0 mg/kg/injection, schedule: Q01DX015 (ip), vehicle: carboxymethylcellulose (CMC)): 94 % of control and 97 % of control
T/C (dose: 25.0 mg/kg/injection, schedule: Q04DX003 (ip), vehicle: saline): 86 % of control
T/C (dose: 33.0 mg/kg/injection, schedule: Q01DX001 (ip), vehicle: carboxymethylcellulose (CMC)): 108 % of control
T/C (dose: 50.0 mg/kg/injection, schedule: Q01DX001 (ip), vehicle: carboxymethylcellulose (CMC)): 113 % of control
T/C (dose: 50.0 mg/kg/injection, schedule: Q04DX003 (ip), vehicle: saline): 119 % of control
T/C [1]: 117 % of control
T/C [2]: 117 % of control
T/C [3]: 123 % of control

Cc1ccc(S(=O)(=O)N(CC(=O)O)c2ccccc2-c2ccccc2)cc1
T/C [4]: 100 % of control
T/C [5]: 89 % of control
T/C [6]: 100 % of control

C/C(=C/c1ccc([N+](=O)[O-])cc1)C(=O)O
T/C [7]: 96 % of control
T/C [8]: 115 % of control
T/C [9]: 107 % of control

COc1ccccc1NC(=S)N1CCC(CCCC2CCN(C(=S)Nc3ccccc3OC)CC2)CC1
T/C [7]: 92 % of control
T/C [10]: 91 % of control
T/C [8]: 87 % of control
T/C [11]: 89 % of control
T/C [12]: 88 % of control

COC1OCN(C)CC1(C)C (stereo not given)
T/C (dose: 75.0 mg/kg/injection, schedule: Q01DX009 (ip), vehicle: saline): 87 % of control
T/C [10]: 105 % of control
T/C (dose: 150.0 mg/kg/injection, schedule: Q01DX009 (ip), vehicle: saline): 95 % of control
T/C [11]: 102 % of control
T/C (dose: 300.0 mg/kg/injection, schedule: Q01DX009 (ip), vehicle: saline): 99 % of control

COC(=O)CCS
T/C (dose: 10.0 mg/kg/injection, schedule: Q01DX001 (ip), vehicle: saline): 101 % of control
T/C (dose: 20.0 mg/kg/injection, schedule: Q01DX001 (ip), vehicle: saline): 101 % of control
T/C (dose: 40.0 mg/kg/injection, schedule: Q01DX001 (ip), vehicle: saline): 96 % of control

CCOC(=O)Nc1ccc([N+](=O)[O-])cc1
T/C [7]: 87 % of control
T/C [10]: 99 % of control
T/C [8]: 99 % of control
T/C [11]: 110 % of control
T/C [9]: 97 % of control
T/C [12]: 89 % of control

O=C(Nc1ncc([N+](=O)[O-])s1)C(F)(F)F
T/C [13]: 97 % of control
T/C [4]: 92 % of control
T/C [5]: 90 % of control
T/C [6]: 105 % of control

CCCCCCCCCCCCCCCCOc1ccc(Cl)cc1
T/C (dose: 100.0 mg/kg/injection, schedule: Q01DX001 (ip), vehicle: Klucel (hydroxypropylcellulose) (HPC)): 95 % of control
T/C [10]: 97 % of control
T/C [11]: 87 % of control
T/C (dose: 400.0 mg/kg/injection, schedule: Q01DX001 (ip), vehicle: Klucel (hydroxypropylcellulose) (HPC)): 92 % of control
T/C [12]: 93 % of control

Cc1ccc([N+](=O)[O-])cc1[I+]c1ccccc1C(=O)[O-]
T/C [13]: 103 % of control
T/C [4]: 106 % of control
T/C [5]: 91 % of control
T/C [6]: 101 % of control

CN(C)c1ccc(C=Nc2ccc(N(C)C)cc2)cc1
T/C [1]: 105 % of control
T/C (dose: 100.0 mg/kg/injection, schedule: Q01DX009 (ip), vehicle: carboxymethylcellulose (CMC)): 96 % of control and 92 % of control
T/C (dose: 100.0 mg/kg/injection, schedule: Q04DX002 (ip), vehicle: carboxymethylcellulose (CMC)): 102 % of control and 104 % of control
T/C (dose: 100.0 mg/kg/injection, schedule: Q04DX003 (ip), vehicle: carboxymethylcellulose (CMC)): 102 % of control
T/C [2]: 93 % of control
T/C (dose: 200.0 mg/kg/injection, schedule: Q01DX009 (ip), vehicle: carboxymethylcellulose (CMC)): 86 % of control and 88 % of control
T/C (dose: 200.0 mg/kg/injection, schedule: Q04DX002 (ip), vehicle: carboxymethylcellulose (CMC)): 98 % of control and 105 % of control
T/C (dose: 200.0 mg/kg/injection, schedule: Q04DX003 (ip), vehicle: carboxymethylcellulose (CMC)): 92 % of control
T/C [3]: 88 % of control
T/C (dose: 400.0 mg/kg/injection, schedule: Q01DX009 (ip), vehicle: carboxymethylcellulose (CMC)): 86 % of control and 92 % of control
T/C (dose: 400.0 mg/kg/injection, schedule: Q04DX002 (ip), vehicle: carboxymethylcellulose (CMC)): 97 % of control and 100 % of control
T/C (dose: 400.0 mg/kg/injection, schedule: Q04DX003 (ip), vehicle: carboxymethylcellulose (CMC)): 92 % of control

COc1cc(N(C)C)c(OC)cc1C=O
T/C [7]: 103 % of control
T/C [10]: 97 % of control
T/C [8]: 105 % of control
T/C [11]: 95 % of control
T/C [12]: 95 % of control

CC(=O)CC(=O)Nc1cc(C)ccc1C
T/C [14]: 101 % of control
T/C [15]: 118 % of control
T/C (dose: 400.0 mg/kg/injection, schedule: Q04DX003 (ip), vehicle: saline): 95 % of control

N#CCN1Cc2ccccc2CCc2ccccc2C1
T/C (dose: 50.0 mg/kg/injection, schedule: Q01DX009 (ip), vehicle: Klucel (hydroxypropylcellulose) (HPC)): 103 % of control
T/C [7]: 108 % of control
T/C [10]: 100 % of control
T/C [8]: 107 % of control
T/C [11]: 96 % of control

CC(C)N(C)/N=N/N(C)C(C)C
T/C (dose: 100.0 mg/kg/injection, schedule: Q01DX001 (ip), vehicle: saline with Tween-80): 101 % of control
T/C (dose: 200.0 mg/kg/injection, schedule: Q01DX001 (ip), vehicle: saline with Tween-80): 103 % of control
T/C (dose: 400.0 mg/kg/injection, schedule: Q01DX001 (ip), vehicle: saline with Tween-80): 117 % of control

OCCCNc1nc2ccccc2c2ccccc12
T/C (dose: 100.0 mg/kg/injection, schedule: Q01DX009 (ip), vehicle: saline): 102 % of control
T/C [10]: 94 % of control
T/C (dose: 200.0 mg/kg/injection, schedule: Q01DX009 (ip), vehicle: saline): 100 % of control
T/C [11]: 102 % of control
T/C [12]: 100 % of control

NNc1nnc(Cl)cc1N
T/C (dose: 25.0 mg/kg/injection, schedule: Q04DX003 (ip), vehicle: saline with Tween-80): 102 % of control
T/C (dose: 50.0 mg/kg/injection, schedule: Q04DX003 (ip), vehicle: saline with Tween-80): 104 % of control
T/C (dose: 100.0 mg/kg/injection, schedule: Q04DX003 (ip), vehicle: saline with Tween-80): 113 % of control

CC(CC#N)NCC[P+](c1ccccc1)(c1ccccc1)c1ccccc1 (stereo not given)
T/C [14]: 95 % of control
T/C [15]: 96 % of control

CN(CCNC(=O)c1ccccc1C(=O)O)c1ccccc1
T/C (dose: 100.0 mg/kg/injection, schedule: Q04DX002 (ip), vehicle: saline with Tween-80): 100 % of control
T/C (dose: 200.0 mg/kg/injection, schedule: Q04DX002 (ip), vehicle: saline with Tween-80): 95 % of control

CC(C)C1CCC(C)C(OB(OC2CC(C(C)C)CCC2C)OC2CC(C(C)C)CCC2C)C1 (stereo not given)
T/C [10]: 88 % of control
T/C [11]: 99 % of control
T/C [12]: 88 % of control

CCCCCOC(=S)S
T/C (dose: 9.37 mg/kg/injection, schedule: Q01DX009 (ip), vehicle: saline): 100 % of control
T/C (dose: 18.75 mg/kg/injection, schedule: Q01DX009 (ip), vehicle: saline): 110 % of control
T/C (dose: 37.5 mg/kg/injection, schedule: Q01DX009 (ip), vehicle: saline): 98 % of control
T/C [4]: 109 % of control
T/C [5]: 103 % of control

ClC(Cl)(Cl)c1cccc(C(Cl)(Cl)Cl)c1
T/C [7]: 121 % of control
T/C [10]: 105 % of control
T/C [8]: 101 % of control
T/C [11]: 95 % of control
T/C [12]: 95 % of control
